Our source for the IC50 values is patent publication US12240862B2, “Inhibitors of peptidylarginine deiminases” (Gilead Sciences, Inc., priority 2020, dated 2025).

The target in the assay is T1, human PAD4 (Homo sapiens, UniProt Q9UM07).
T1 construct: human PAD4 (NM_012387), A2P663, was PCR amplified; His-SUMO (N, cleaved yes); made in house; host or cells: E. coli BL21(DE3)
T1 sequence (Q9UM07 2-663): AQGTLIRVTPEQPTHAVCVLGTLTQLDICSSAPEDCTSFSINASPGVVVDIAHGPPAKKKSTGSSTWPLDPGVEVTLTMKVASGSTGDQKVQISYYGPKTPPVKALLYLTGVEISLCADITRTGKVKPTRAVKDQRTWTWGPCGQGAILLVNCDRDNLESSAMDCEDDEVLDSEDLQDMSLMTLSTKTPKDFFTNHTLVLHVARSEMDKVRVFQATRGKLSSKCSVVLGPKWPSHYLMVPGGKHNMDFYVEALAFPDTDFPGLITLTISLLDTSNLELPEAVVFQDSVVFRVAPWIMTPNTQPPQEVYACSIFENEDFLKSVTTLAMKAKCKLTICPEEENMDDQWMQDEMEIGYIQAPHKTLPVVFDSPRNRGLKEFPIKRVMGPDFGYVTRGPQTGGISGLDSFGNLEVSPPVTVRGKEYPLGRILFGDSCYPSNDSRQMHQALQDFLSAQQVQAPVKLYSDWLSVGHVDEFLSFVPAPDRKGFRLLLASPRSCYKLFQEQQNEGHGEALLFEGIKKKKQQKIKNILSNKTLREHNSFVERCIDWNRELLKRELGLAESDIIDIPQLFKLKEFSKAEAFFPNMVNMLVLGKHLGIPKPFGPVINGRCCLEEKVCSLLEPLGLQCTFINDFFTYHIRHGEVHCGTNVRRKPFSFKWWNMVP
Description: In vitro PAD4 BAEE biochemical assay. Particulars: human PAD4, BAEE substrate; 5 nM PAD4, 2 mM calcium chloride, 3 mM BAEE; geometric mean of multiple experiments. The method, boiled down:
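Tag-free recombinant hPAD4 (5 nM), 2 mM CaCl2, 3 mM BAEE, 50 mM MOPS pH 7.6, 2 mM DTT; 30 min compound preincubation, 2 h reaction, all 25 °C. EDTA quench; ammonia read via o-phthalaldehyde amine coupling, 1 h.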
The term IC50 denotes the concentration that inhibits the measured activity by half. Turning to `COc1cc(C(=O)N2[C@H]3CC[C@@H]2[C@H](N)C3)cc2nc(-c3cc4ccc([C@@H](C)NC(=O)N(C)Cc5cccnc5)nc4n3CC3CC3)c(C)n12` [Example 222, 3-[(1~{R})-1-[2-[7-[(1~{R},2~{R},4~{S})-2-amino-7-azabicyclo[2.2.1]heptane-7-carbonyl]-5-methoxy-3-methylimidazo [1,2-a]pyridin-2-yl]-1-(cyclopropylmethyl)pyrrolo [2,3-b]pyridin-6-yl]ethyl]-1-methyl-1-(pyridin-3-ylmethyl)urea], the IC50 was found to be 20 nM.
`COc1cc(C(=O)N2[C@H]3CC[C@@H]2[C@H](N)C3)cc2nc(-c3cc4ccc([C@@H](C)NC(=O)c5cnccn5)nc4n3CC3CC3)c(C)n12` [Example 83]: the IC50 stood at 47.2 nM.
Consider `COc1cc(C(=O)N2[C@H]3CC[C@@H]2[C@H](N)C3)cc2nc(-c3cc4ccc([C@@H](C)NC(=O)NCc5cccnc5)nc4n3CC3CC3)c(C)n12` [Example 226, 1-[(1~{R})-1-[2-[7-[(1~{R},2~{R},4~{S})-2-amino-7-azabicyclo[2.2.1]heptane-7-carbonyl]-5-methoxy-3-methylimidazo [1,2-a]pyridin-2-yl]-1-(cyclopropylmethyl)pyrrolo [2,3-b]pyridin-6-yl]ethyl]-3-(pyridin-3-ylmethyl)urea], for which the IC50 was 42.3 nM.
On to `COc1cc(C(=O)N2[C@H]3CC[C@@H]2[C@H](N)C3)cc2nc(-c3cc4ccc(N5CCCOC5=O)nc4n3CC3CC3)c(C)n12` [Example 464, 3-[2-[7-[(1~{R},2~{R}, 4~{S})-2-amino-7-azabicyclo[2.2.1]heptane-7-carbonyl]-5-methoxy-3-methylimidazo[1,2-a]pyridin-2-yl]-1-(cyclopropylmethyl)pyrrolo [2,3-b]pyridin-6-yl]-1,3-oxazinan-2-one], for which the IC50 was 100 nM.
Turning to `COc1cc(C(=O)N2[C@H]3CC[C@@H]2[C@H](N)C3)cc2nc(-c3cc4ccc(N5C[C@H](C)OCS5(=O)=O)nc4n3CC3CC3)c(C)n12` [Example 441, [(1~{R},2~{R},4~{S})-2-amino-7-azabicyclo [2.2.1]heptan-7-yl]-[2-[1-(cyclopropylmethyl)-6-[(6~{S})-6-methyl-3,3-dioxo-1,3,4-oxathiazinan-4-yl]pyrrolo[2,3-b]pyridin-2-yl]-5-methoxy-3-methylimidazo[1,2-a]pyridin-7-yl]methanone], the half-maximal inhibitory concentration (IC50) is 73.1 nM.
Under `COc1cc(C(=O)N2[C@H]3CC[C@@H]2[C@H](N)C3)cc2nc(-c3cc4ccc([C@@H](C)NC(=O)C56CC(CO)(C5)C6)nc4n3CC3CC3)c(C)n12` [Example 65] stands 33.6 nM; under `C=CCC(=O)N[C@H](C)c1ccc2cc(-c3nc4cc(C(=O)N5[C@H]6CC[C@@H]5[C@H](N)C6)cc(OC)n4c3C)n(CC3CC3)c2n1` [Example 64, ~{N}-[(1~{R})-1-[2-[7-[(1~{R},2~{R},4~{S})-2-amino-7-azabicyclo[2.2.1]heptane-7-carbonyl]-5-methoxy-3-methylimidazo [1,2-a]pyridin-2-yl]-1-(cyclopropylmethyl)pyrrolo[2,3-b]pyridin-6-yl]ethyl]but-3-enamide], 38.5 nM.
As for `CCc1ccc2cc(-c3nc4cc(C(=O)N5[C@H]6CC[C@@H]5[C@H](N)C6)cc(OC)n4c3C)n(CCS(C)(=O)=O)c2n1` [Example 498, [(1~{R},2~{R},4~{S})-2-amino-7-azabicyclo [2.2.1]heptan-7-yl]-[2-[6-ethyl-1-(2-methylsulfonylethyl)pyrrolo[2,3-b]pyridin-2-yl]-5-methoxy-3-methylimidazo[1,2-a]pyridin-7-yl]methanone], the IC50 came out at 673 nM.
For `CNC(=O)CC(C)c1ccc2cc(-c3nc4cc(C(=O)N5[C@H]6CC[C@@H]5[C@H](N)C6)cc(OC)n4c3C)n(CC3CC3)c2n1` (stereo partly drawn) [Example 524, 3-[2-[7-[(1~{R},2~{R}, 4~{S})-2-amino-7-azabicyclo[2.2.1]heptane-7-carbonyl]-5-methoxy-3-methylimidazo[1,2-a]pyridin-2-yl]-1-(cyclopropylmethyl)pyrrolo [2,3-b]pyridin-6-yl]-~{N}-methylbutanamide], the half-inhibitory concentration (IC50) came out at 78.9 nM.
